Data published in BindingDB's records for doi:10.7270/Q2TX3D82 (Future University, 2017).

Biological target: T1, Dihydrofolate reductase (Bos taurus, UniProt P00376)
T1 sequence (P00376 whole entry): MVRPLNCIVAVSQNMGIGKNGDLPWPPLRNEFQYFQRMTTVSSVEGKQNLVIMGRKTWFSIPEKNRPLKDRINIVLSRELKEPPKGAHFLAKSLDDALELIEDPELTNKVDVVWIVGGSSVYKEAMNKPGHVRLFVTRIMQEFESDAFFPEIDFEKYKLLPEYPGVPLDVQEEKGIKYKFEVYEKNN
Assay: Dihydrofolate Reductase (DHFR) Inhibition Assay
Conditions: pH 7.4; 25 °C

Compound	IC50
COc1ccc(-n2c(SCC(=O)NNC(=S)c3ccc(Cl)cc3)nc3ccc(Cl)cc3c2=O)cc1 [1-[2-(6-Chloro)-3-(4-methoxy-phenyl)-4-oxo-3,4-dihydroquinazolin-2-yl-thio)acetyl)-4-(4-chloro)phenyl]thiosemicarbazide (20)]	1.2 µM
COc1ccc(C(=S)NNC(=O)CSc2nc3cc(OC)c(OC)cc3c(=O)n2-c2ccc(OC)cc2)cc1 [1-[2-(6,7-Dimethoxy)-3-(4-methoxy-phenyl)-4-oxo-3,4-dihydroquinazolin-2-yl-thio)acetyl)-4-(4-methoxy)phenyl]thiosemicarbazide (23)]	0.6 µM
COc1ccc(Nc2nnc(CSc3nc4ccc(Cl)cc4c(=O)n3-c3ccc(OC)cc3)s2)cc1 [6-chloro-2-((5-(4-methoxyphenylamino)-1,3,4-thiadiazol-2-yl)methylthio)-3-(4-methoxyphenyl)quinazolin-4(3H)-one (29)]	4.4 µM
COc1ccc(-n2c(=S)[nH]c3cc(OC)c(OC)cc3c2=O)cc1 [(6,7-Dimethoxy)-2-mercapto-3-(4-methoxyphenyl)quinazolin-4(3H)-ones (11)]	29 µM
COc1ccc(-n2c(SCc3nnc(Nc4ccc(Cl)cc4)s3)nc3cc(OC)c(OC)cc3c2=O)cc1 [6,7-Dimethoxy-2-((5-(4-chlorophenylamino)-1,3,4-thiadiazol-2-yl)methylthio)-3-(4-methoxyphenyl)quinazolin-4(3H)-one (30)]	14.7 µM
COc1ccc(-n2c(SCc3nnc(Nc4ccc(Cl)cc4)s3)nc3ccc(Cl)cc3c2=O)cc1 [6-Chloro-2-((5-(4-chlorophenylamino)-1,3,4-thiadiazol-2-yl)methylthio)-3-(4-methoxyphenyl)quinazolin-4(3H)-one (28)]	0.4 µM
COc1ccc(-n2c(=S)[nH]c3ccc(Cl)cc3c2=O)cc1 [6-Chloro-2-mercapto-3-(4-methoxyphenyl)quinazolin-4(3H)-ones (10)]	11.5 µM
COc1ccc(-n2c(SCC(=O)NN)nc3ccc(Cl)cc3c2=O)cc1 [2-[6-Chloro-3-(4-methoxyphenyl)-4-oxo-3,4-dihydroquinazolin-2-yl-thio] acetohydrazide (14)]	7.5 µM
COc1ccc(-n2c(SCC(=O)NN)nc3cc(OC)c(OC)cc3c2=O)cc1 [2-[(6,7-Dimethoxy)-3-(4-methoxyphenyl)-4-oxo-3,4-dihydroquinazolin-2-yl-thio] acetohydrazide (15)]	0.8 µM
COc1ccc(Nc2nnc(CSc3nc4cc(OC)c(OC)cc4c(=O)n3-c3ccc(OC)cc3)s2)cc1 [6,7-Dimethoxy-2-((5-(4-methoxyphenylamino)-1,3,4-thiadiazol-2-yl)methylthio)-3-(4-methoxyphenyl)quinazolin-4(3H)-one (31)]	11.8 µM

Results, then the compound that gave them:

IC50	Compound
11 µM	COc1ccc(-n2c(SCc3nnc(S)n3-c3ccc(Cl)cc3)nc3cc(OC)c(OC)cc3c2=O)cc1 [(6,7-Dimethoxy)-2-((4-(4-chlorophenyl)-5-mercapto-4H-1,2,4-triazol-3-yl)methylthio)-3-(4-methoxyphenyl)quinazolin-4(3H)-one (26)]
1.7 µM	CCOC(=O)CSc1nc2ccc(Cl)cc2c(=O)n1-c1ccc(OC)cc1 [Ethyl 2-(6-chloro-3-(4-methoxyphenyl)-4-oxo-3,4-dihydroquinazolin-2-yl-thio)acetate (12)]
19 µM	COc1ccc(-n2c(SCC(=O)N/N=C/c3ccc(Cl)cc3)nc3ccc(Cl)cc3c2=O)cc1 [N'-[4-Chlorobenzylidene-2-(6-chloro)-3-(4-methoxy-phenyl)-4-oxo-3,4-dihydroquinazolin-2-yl-thio]acetohydrazide (16)]
0.01 µM	COc1ccc(/C=N/NC(=O)CSc2nc3ccc(Cl)cc3c(=O)n2-c2ccc(OC)cc2)cc1 [N'-[4-Methoxybenzylidene-2-(6-chloro)-3-(4-methoxy-phenyl)-4-oxo-3,4-dihydroquinazolin-2-yl-thio]acetohydrazide (17)]
10.8 µM	COc1ccc(-n2c(S)nnc2CSc2nc3cc(OC)c(OC)cc3c(=O)n2-c2ccc(OC)cc2)cc1 [(6,7-Dimethoxy)-2-((4-(4-methoxyphenyl)-5-mercapto-4H-1,2,4-triazol-3-yl)methylthio)-3-(4-methoxyphenyl)quinazolin-4(3H)-one (27)]
14.4 µM	CCOC(=O)CSc1nc2cc(OC)c(OC)cc2c(=O)n1-c1ccc(OC)cc1 [Ethyl 2-(6,7-dimethoxy-3-(4-methoxyphenyl)-4-oxo-3,4-dihydroquinazolin-2-yl-thio)acetate (13)]
7.6 µM	COc1ccc(-n2c(SCC(=O)N/N=C/c3ccc(Cl)cc3)nc3cc(OC)c(OC)cc3c2=O)cc1 [N'-[4-Chlorobenzylidene-2-(6,7-dimethoxy)-3-(4-methoxy-phenyl)-4-oxo-3,4-dihydroquinazolin-2-yl-thio]acetohydrazide (18)]
8 µM	COc1ccc(/C=N/NC(=O)CSc2nc3cc(OC)c(OC)cc3c(=O)n2-c2ccc(OC)cc2)cc1 [N'-[4-Methoxybenzylidene-2-(6,7-dimethoxy)-3-(4-methoxy-phenyl)-4-oxo-3,4-dihydroquinazolin-2-yl-thio]acetohydrazide (19)]
